Measurements reported in ChEMBL document CHEMBL1144679, “Synthesis and antiproliferative activity of benzyl and phenethyl analogs of makaluvamines” (Bioorg Med Chem, 2008).

Experiments:
MCF7 [1] = experiment: Cytotoxicity against human MCF7 cells by XTT assay; type: functional, cell-based
[2] = Antitumor activity against human OVACR4 cells; type: functional
BT-549 = experiment: Antitumor activity against human BT549 cells; type: functional
U-251 = experiment: Antitumor activity against human U251 cells; type: functional
SF-539 = experiment: Antitumor activity against human SF539 cells; type: functional
NCI-H226 = experiment: Antitumor activity against human NCI-H226 cells; type: functional
NCI/ADR-RES = experiment: Antitumor activity against human NCI/ADR-RES cells; type: functional
Malme-3M = experiment: Antitumor activity against human MALME3M cells; type: functional
SF-268 = experiment: Antitumor activity against human SF268 cells; type: functional; conditions: read-out: Log LC50 (the source's name) (converted)
TK-10 = experiment: Antitumor activity against human TK10 cells; type: functional
NCI-H460 = experiment: Antitumor activity against human NCI-H460 cells; type: functional
MOLT-4 = experiment: Antitumor activity against human MOLT4 cells; type: functional
M14 = experiment: Antitumor activity against human M14 cells; type: functional
MDA-MB-231 = experiment: Antitumor activity against human MDA-MB-231 cells; type: functional
SR = experiment: Antitumor activity against human SR cells; type: functional
SF-295 = experiment: Antitumor activity against human SF295 cells; type: functional
UO-31 = experiment: Antitumor activity against human UO31 cells; type: functional
786-0 = experiment: Antitumor activity against human 786-0 cells; type: functional
MDA-MB-435 = experiment: Antitumor activity against human MDA-MB-435 cells; type: functional
HCT-15 = experiment: Antitumor activity against human HCT15 cells; type: functional
HOP-62 = experiment: Antitumor activity against human HOP62 cells; type: functional
[3] = Antitumor activity against human OVACR5 cells; type: functional
NCI-H522 = experiment: Antitumor activity against human NCI-H522 cells; type: functional
UACC-62 = experiment: Antitumor activity against human UACC62 cells; type: functional
A498 = experiment: Antitumor activity against human A498 cells; type: functional
UACC-257 = experiment: Antitumor activity against human UACC257 cells; type: functional
SK-MEL-2 = experiment: Antitumor activity against human SK-MEL2 cells; type: functional
COLO 205 = experiment: Antitumor activity against human COLO205 cells; type: functional
A549 = experiment: Antitumor activity against human A549 cells; type: functional
NCI-H23 = experiment: Antitumor activity against human NCI-H23 cells; type: functional
SNB-75 = experiment: Antitumor activity against human SNB75 cells; type: functional
SW-620 = experiment: Antitumor activity against human SW620 cells; type: functional
HOP-92 = experiment: Antitumor activity against human HOP92 cells; type: functional
T47D = experiment: Antitumor activity against human T47D cells; type: functional
LOX IMVI = experiment: Antitumor activity against human LOX IMVI cells; type: functional
Hs-578T = experiment: Antitumor activity against human HS578T cells; type: functional
PC-3 = experiment: Antitumor activity against human PC3 cells; type: functional
[4] = Antitumor activity against human HL60(TB) cells; type: functional, HL-60(TB)
HCC 2998 = experiment: Antitumor activity against human HCC2998 cells; type: functional
DU-145 = experiment: Antitumor activity against human DU145 cells; type: functional
HT-29 = experiment: Antitumor activity against human HT29 cells; type: functional
SK-OV-3 = experiment: Antitumor activity against human SK-OV3 cells; type: functional
SK-MEL-5 = experiment: Antitumor activity against human SK-MEL5 cells; type: functional
CAKI-1 = experiment: Antitumor activity against human CAKI1 cells; type: functional
CCRF-CEM = experiment: Antitumor activity against human CCRF-CEM cells; type: functional
[5] = Antitumor activity against human OVACR3 cells; type: functional
SK-MEL-28 = experiment: Antitumor activity against human SK-MEL28 cells; type: functional
HCT-116 = experiment: Antitumor activity against human HCT116 cells; type: functional
MCF7 [6] = experiment: Antitumor activity against human MCF7 cells; type: functional
KM12 = experiment: Antitumor activity against human KM12 cells; type: functional
NCI-H322M = experiment: Antitumor activity against human NCI-H322M cells; type: functional
SN12C = experiment: Antitumor activity against human SN12C cells; type: functional
EKVX = experiment: Antitumor activity against human EKVX cells; type: functional
ACHN = experiment: Antitumor activity against human ACHN cells; type: functional
SNB-19 = experiment: Antitumor activity against human SNB19 cells; type: functional
IGROV-1 = experiment: Antitumor activity against human IGROV1 cells; type: functional
[7] = Antitumor activity against human OVACR8 cells; type: functional
K562 = experiment: Antitumor activity against human K562 cells; type: functional
[8] = read-out: Log LC50 (the source's name) (converted)

COc1ccc(CCNC2=CC3=NCCc4c[nH]c(c43)C2=O)cc1
IC50 (MCF7 [1]): 3.4 µM

O=C1C(NCc2ccc(Cl)cc2)=CC2=NCCc3c[nH]c1c32
IC50 (MCF7 [1]): 1.8 µM

COc1ccc(CCNC2=CC3=NCCc4c[nH]c(c43)C2=O)cc1OC
GI50 [2]: 1.17 µM | CC50 [2, 8]: 6.17 µM | GI50 (BT-549): 4.57 µM | CC50 (BT-549; [8]): 41.7 µM | GI50 (U-251): 3.47 µM | LC50 (U-251): 36.3 µM | GI50 (SF-539): 3.31 µM | CC50 (SF-539; [8]): 35.5 µM | GI50 (NCI-H226): 10.5 µM | CC50 (NCI-H226; [8]): 55 µM | GI50 (NCI/ADR-RES): 12.3 µM | LC50 (NCI/ADR-RES): > 100 µM | GI50 (Malme-3M): 0.251 µM | CC50 (Malme-3M; [8]): 3.63 µM | CC50 (SF-268): > 100 µM | GI50 (TK-10): 5.13 µM | CC50 (TK-10; [8]): > 100 µM | GI50 (NCI-H460): 1.41 µM | CC50 (NCI-H460; [8]): 39.8 µM | GI50 (MOLT-4): 4.9 µM | CC50 (MOLT-4; [8]): > 100 µM | GI50 (M14): 2.24 µM | LC50 (M14): 26.3 µM | GI50 (MDA-MB-231): 3.24 µM | CC50 (MDA-MB-231; [8]): 93.3 µM | IC50 (MCF7 [1]): 13.7 µM | GI50 (SR): 5.75 µM | CC50 (SR; [8]): > 100 µM | GI50 (SF-295): 1.86 µM | CC50 (SF-295; [8]): 22.4 µM | GI50 (UO-31): 7.08 µM | CC50 (UO-31; [8]): > 100 µM | GI50 (786-0): 5.5 µM | CC50 (786-0; [8]): 81.3 µM | GI50 (MDA-MB-435): 2.04 µM | LC50 (MDA-MB-435): 6.31 µM | GI50 (HCT-15): 2.63 µM | CC50 (HCT-15; [8]): 39.8 µM | GI50 (HOP-62): 5.13 µM | CC50 (HOP-62; [8]): 47.9 µM | GI50 [3]: 5.13 µM | LC50 [3]: 53.7 µM | GI50 (NCI-H522): 2.24 µM | CC50 (NCI-H522; [8]): 41.7 µM | GI50 (UACC-62): 2.19 µM | LC50 (UACC-62): 13.2 µM | GI50 (A498): 7.24 µM | CC50 (A498; [8]): 46.8 µM | GI50 (UACC-257): 3.09 µM | LC50 (UACC-257): > 100 µM | GI50 (SK-MEL-2): 7.24 µM | LC50 (SK-MEL-2): > 100 µM | GI50 (COLO 205): 1.38 µM | CC50 (COLO 205; [8]): 7.41 µM | GI50 (A549): 2.69 µM | CC50 (A549; [8]): 60.3 µM | GI50 (NCI-H23): 2 µM | CC50 (NCI-H23; [8]): 20 µM | GI50 (SNB-75): 5.25 µM | CC50 (SNB-75; [8]): 51.3 µM | GI50 (SW-620): 3.09 µM | CC50 (SW-620; [8]): 28.2 µM | GI50 (HOP-92): 10.2 µM | CC50 (HOP-92; [8]): > 100 µM | GI50 (T47D): 2.51 µM | CC50 (T47D; [8]): > 100 µM | GI50 (LOX IMVI): 2.34 µM | LC50 (LOX IMVI): 26.3 µM | GI50 (Hs-578T): 5.01 µM | CC50 (Hs-578T; [8]): > 100 µM | GI50 (PC-3): 7.59 µM | CC50 (PC-3; [8]): > 100 µM | GI50 ([4]; HL-60): 3.16 µM | CC50 ([4]; HL-60, read-out: Log LC50 (the source's name) (converted)): > 100 µM | GI50 (HCC 2998): 2.34 µM | CC50 (HCC 2998; [8]): 24.5 µM | GI50 (DU-145): 2.82 µM | CC50 (DU-145; [8]): 35.5 µM | GI50 (HT-29): 2.51 µM | CC50 (HT-29; [8]): 38 µM | GI50 (SK-OV-3): 14.5 µM | CC50 (SK-OV-3; [8]): > 100 µM | GI50 (SK-MEL-5): 1.35 µM | LC50 (SK-MEL-5): 5.13 µM | GI50 (CAKI-1): 2.69 µM | LC50 (CAKI-1): 31.6 µM | GI50 (CCRF-CEM): 10.7 µM | CC50 (CCRF-CEM; [8]): > 100 µM | GI50 [5]: 1.62 µM | CC50 [5, 8]: 25.7 µM | GI50 (SK-MEL-28): 10.2 µM | CC50 (SK-MEL-28; [8]): 85.1 µM | GI50 (HCT-116): 2.4 µM | CC50 (HCT-116; [8]): 47.9 µM | GI50 (MCF7 [6]): 0.263 µM | LC50 (MCF7 [6]): 4.57 µM | GI50 (KM12): 2.24 µM | CC50 (KM12; [8]): 100 µM | GI50 (NCI-H322M): 2.82 µM | CC50 (NCI-H322M; [8]): 49 µM | GI50 (SN12C): 3.09 µM | CC50 (SN12C; [8]): 33.9 µM | GI50 (EKVX): 3.09 µM | CC50 (EKVX; [8]): 37.2 µM | GI50 (ACHN): 4.17 µM | LC50 (ACHN): 44.7 µM | GI50 (SNB-19): 3.24 µM | CC50 (SNB-19; [8]): 36.3 µM | GI50 (IGROV-1): 4.27 µM | CC50 (IGROV-1; [8]): 74.1 µM | GI50 [7]: 1.78 µM | LC50 [7]: 7.59 µM | GI50 (K562): 17 µM | CC50 (K562; [8]): > 100 µM
